Experimental data reported in PubChem BioAssay AID2060612 (Molecular Pharmacology Branch, DTP, NCI, 2025).

System: 565232-114-T-J1-PDC complex spheroid viability
Assay: Anticancer human tumor 565232-114-T-J1-PDC patient-derived bladder carcinoma cell line growth inhibition [CLK]
Details: for IC50: curve of first compound; for viability, T/C: stronger effect = lower value
Text: A high-throughput screen of multi-cell type tumor spheroids was designed to identify active combinations of […] and targeted small molecules. Complex spheroids include a stromal component modeled by human endothelial cells (HUVEC) and fibroblasts modeled by human mesenchymal stem cells (MSCs). The concentration ranges selected for each drug and investigational agent were based upon clinically achievable concentrations if the clinical Cmax of the agent was known.
Compounds. The drugs and investigational agents: cirtuvivint (SM08502; NSC835563), CC-671 (NSC850746), vemurafenib (NSC761431), tapotoclax (NSC804041), sotorasib (NSC818433), adagrasib (NSC831453), MRTX-1133 (NSC836407), BAY2416964 (NSC825713), copanlisib (NSC816437), inavolisib (NSC800729), abemaciclib (NSC768073), osimertinib (NSC779217), entinostat (NSC756642), eltanexor (KPT-8602, NSC794443), venetoclax (NSC766270), ceralasertib (NSC777638), bortezomib (NSC756655), olaparib (NSC753686), talazoparib (NSC767125), alisertib (NSC759677), peposertib (NSC802822), gemcitabine (NSC613327), 5-fluorouracil (NSC19893), SN-38 (NSC673596), oxaliplatin (NSC266046), paclitaxel (NSC125973), and doxorubicin (NSC123127), were obtained from the National Cancer Institute (NCI) Developmental Therapeutics Program Chemical Repository. The FDA-approved anticancer drug set is available from the Developmental Therapeutics Program at https://dtp.cancer.gov/organization/dscb/obtaining/available plates.htm. […] The stock solutions were prepared in dimethyl sulfoxide (DMSO, Sigma-Aldrich, St. Louis, MO, cat. D2650), except for the platinum complexes which were prepared in saline (Quality Biological, Gaithersburg, MD, cat. 114-055-101), at 800-fold the tested concentration and stored at -70 degrees C prior to their use. All drugs and investigational agents were tested over a range starting from a high concentration at or near the clinical Cmax and decreasing in half-log increments. If the clinical Cmax for an agent had not been determined, the highest concentration tested was 10 microM.
Cell Culture. All cells were maintained in an incubator at 37 degrees C and 5% CO2 with 95% humidity. The PDC lines were cultured according to standard operating procedures established by the NCI PDMR. Briefly, all PDCs were thawed and cultured in Matrigel-coated flasks prepared with a working solution of 1X Ham's F-12 nutrient mix, without supplementation (Invitrogen, Waltham, MA, cat. 11765054), 100 U/mL penicillin-streptomycin (Invitrogen, cat. 15140122), and 2.5% Matrigel (Corning Inc., Corning, NY, cat. 354248) for the first three passages. The 947758-054-R-J2-PDC line was cultured in 6B/Colon 1A media, which includes advanced DMEM/F-12 (Thermo Fisher Scientific, cat. 12634028), 10 mM HEPES (Thermo Fisher Scientific, cat. 15630080), 1X GlutaMAX supplement (Thermo Fisher Scientific, cat. 35050061), 0.1 mg/mL primocin (InvivoGen, cat. ant-pm-2), 10% defined fetal bovine serum, heat inactivated (HyClone Laboratories Inc., cat. SH30070.03HI), 1.25 mM N-Acetyl-L-cysteine (Sigma-Aldrich, cat. A9165), 10 mM nicotinamide (Sigma-Aldrich, cat. N0636), 1X B-27 supplement (Thermo Fisher Scientific, cat. 17504044), 1X N-2 supplement (Thermo Fisher Scientific, cat. 17502048), and 10 microM Y-27632 dihydrochloride (Tocris Bioscience, cat. 1254). The 876862-298-R-J1-PDC was cultured in 6E media, which includes all 6B/Colon 1A media components plus 50% L-WRN conditioned media (ATCC, cat. CRL-3276), 50 ng/mL recombinant human EGF recombinant protein (hEGF; Thermo Fisher Scientific, cat. PHG0311), 10 ng/mL recombinant human fibroblast growth factor 10 (hGFG-10; PeproTech, cat. 100-26), 1 ng/mL recombinant human fibroblast growth factor 2 (hFGF-2; PeproTech, cat. 100-18B), and 1 µM prostaglandin E2 (PGE2; Tocris, cat. 2296). The 227483-062-R1-J1-PDC line was cultured in Panc media, containing all 6E components except hFGF-2, with the addition of 500 nM SB-431542 (Selleckchem, cat. S1067) and 10 nM gastrin (Tocris, cat. 3006). […]
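Also: spheroids exposed to compounds for 7 days before readout.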
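For viability, T/C in this document: 100% = DMSO vehicle wells with luminescence normalized to vehicle control.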

Structure (SMILES): CC(C)CC(NC(=O)C(Cc1ccccc1)NC(=O)c1cnccn1)B(O)O (configuration not stated) + CNC(=O)c1ccc(Nc2nc(OC3CCCC3)c3c(-c4ccc5nc(C)oc5c4)c[nH]c3n2)c(OC)c1
- IC50 (second compound 0.0316 µM): 4.66 nM
- IC50 (second compound 0.1 µM): 1.01 nM
- IC50 (second compound 0.316 µM): < 0.949 nM
- IC50 (second compound 1 µM): < 0.949 nM
- IC50 (second compound 3.16 µM): < 0.949 nM
- IC50 (second compound 10 µM): < 0.949 nM
- viability, T/C (second compound 0.0316 µM, first compound 0.000949 µM): 81%
- viability, T/C (second compound 0.0316 µM, first compound 0.003 µM): 80.1%
- viability, T/C (second compound 0.0316 µM, first compound 0.00949 µM): 1.47%
- viability, T/C (second compound 0.0316 µM, first compound 0.03 µM): 0.95%
- viability, T/C (second compound 0.0316 µM, first compound 0.0949 µM): 0.67%
- viability, T/C (second compound 0.0316 µM, first compound 0.3 µM): 1.42%
- viability, T/C (second compound 0.1 µM, first compound 0.000949 µM): 50.7%
- viability, T/C (second compound 0.1 µM, first compound 0.003 µM): 42.4%
- viability, T/C (second compound 0.1 µM, first compound 0.00949 µM): 1.02%
- viability, T/C (second compound 0.1 µM, first compound 0.03 µM): 0.74%
- viability, T/C (second compound 0.1 µM, first compound 0.0949 µM): 0.79%
- viability, T/C (second compound 0.1 µM, first compound 0.3 µM): 0.53%
- viability, T/C (second compound 0.316 µM, first compound 0.000949 µM): 31.1%
- viability, T/C (second compound 0.316 µM, first compound 0.003 µM): 24.6%
- viability, T/C (second compound 0.316 µM, first compound 0.00949 µM): 0.97%
- viability, T/C (second compound 0.316 µM, first compound 0.03 µM): 0.75%
- viability, T/C (second compound 0.316 µM, first compound 0.0949 µM): 3.5%
- viability, T/C (second compound 0.316 µM, first compound 0.3 µM): 0.65%
- viability, T/C (second compound 1 µM, first compound 0.000949 µM): 22.1%
- viability, T/C (second compound 1 µM, first compound 0.003 µM): 23.1%
- viability, T/C (second compound 1 µM, first compound 0.00949 µM): 0.93%
- viability, T/C (second compound 1 µM, first compound 0.03 µM): 0.66%
- viability, T/C (second compound 1 µM, first compound 0.0949 µM): 0.67%
- viability, T/C (second compound 1 µM, first compound 0.3 µM): 1.42%
- viability, T/C (second compound 3.16 µM, first compound 0.000949 µM): 19.6%
- viability, T/C (second compound 3.16 µM, first compound 0.003 µM): 12.3%
- viability, T/C (second compound 3.16 µM, first compound 0.00949 µM): 0.72%
- viability, T/C (second compound 3.16 µM, first compound 0.03 µM): 1.66%
- viability, T/C (second compound 3.16 µM, first compound 0.0949 µM): 0.65%
- viability, T/C (second compound 3.16 µM, first compound 0.3 µM): 1.37%
- viability, T/C (second compound 10 µM, first compound 0.000949 µM): 19.5%
- viability, T/C (second compound 10 µM, first compound 0.003 µM): 10.6%
- viability, T/C (second compound 10 µM, first compound 0.00949 µM): 1.82%
- viability, T/C (second compound 10 µM, first compound 0.03 µM): 0.61%
- viability, T/C (second compound 10 µM, first compound 0.0949 µM): 0.51%
- viability, T/C (second compound 10 µM, first compound 0.3 µM): 1.99%
